According to patent US12501900B2, “Heterocyclyl pyridazine as fungicidal compounds” (Bayer Aktiengesellschaft, priority 2018, dated 2025):

Tests used:
[1] = system: Colletotrichum lindemuthianum; experiment: In vivo preventive test on Colletotrichum lindemuthianum (leaf spot on bean); conditions: 168 h, 500 ppm of active ingredient, preventive spray on bean, evaluated 7 days after inoculation, read-out: efficacy
Procedure: Example: In Vivo Preventive Test on Colletotrichum lindemuthianum (Leaf Spot on Bean)
(§1) • Solvent: 5% by volume of Dimethyl sulfoxide • 10% by volume of Acetone • Emulsifier: 1 μl of Tween® 80 per mg of active ingredient
(§2) The active ingredients were made soluble and homogenized in a mixture of Dimethyl sulfoxide/Acetone//Tween®80 and then diluted in water to the desired concentration.
The young plants of bean were treated by spraying the active ingredient prepared as described above. Control plants were treated only with an aqueous solution of Acetone/Dimethyl sulfoxide/Tween® 80.
After 24 hours, the plants were contaminated by spraying the leaves with an aqueous suspension of Colletotrichum lindemuthianum spores. The contaminated bean plants were incubated for 24 hours at 20° C. and at 100% relative humidity and then for 6 days at 20° C. and at 90% relative humidity.
The test was evaluated 7 days after the inoculation. 0% means an efficacy which corresponds to that of the control plants while an efficacy of 100% means that no disease was observed.

[2] = system: Colletotrichum lindemuthianum; experiment: Colletotrichum lindemuthianum in vitro cell test; type: cell-based; conditions: 144 h, 20 ppm of active ingredient, liquid culture, 6 days incubation, read-out: efficacy (inhibition of fungal growth)
Procedure: (§3) Example: Colletotrichum lindemuthianum In Vitro Cell Test • Solvent: DMSO • Culture medium: 14.6 g anhydrous D-glucose (VWR), 7.1 g Mycological Peptone (Oxoid), 1.4 g granulated Yeast Extract (Merck), QSP 1 liter • Inoculum: spores suspension Fungicides were solubilized in DMSO and the solution used to prepare the required range of concentrations. The final concentration of DMSO used in the assay was ≤1%. A spore suspension of C. lindemuthianum was prepared and diluted to the desired spore density. Fungicides were evaluated for their ability to inhibit spores germination and mycelium growth in liquid culture assay. The compounds were added in the desired concentration to the culture medium with spores. After 6 days incubation, fungi-toxicity of compounds was determined by spectrometric measurement of mycelium growth. Inhibition of fungal growth was determined by comparing the absorbance values in wells containing the fungicides with the absorbance in control wells without fungicides.

[3] = system: Sphaerotheca fuliginea; experiment: In vivo preventive test on Sphaerotheca fuliginea (powdery mildew on cucurbits); conditions: Podosphaera fuliginea, 192 h; 500 ppm of active ingredient; preventive spray on gherkin; evaluated 8 days after inoculation; read-out: efficacy
Procedure: Example: In Vivo Preventive Test on Sphaerotheca fuliginea (Powdery Mildew on Cucurbits)
as §1, §2
The young plants of gherkin were treated by spraying the active ingredient prepared as described above. Control plants were treated only with an aqueous solution of Acetone/Dimethyl sulfoxide/Tween® 80.
After 24 hours, the plants were contaminated by spraying the leaves with an aqueous suspension of Sphaerotheca fuliginea spores. The contaminated gherkin plants were incubated for 8 days at 20° C. and at 70-80% relative humidity.
The test was evaluated 8 days after the inoculation. 0% means an efficacy which corresponds to that of the control plants while an efficacy of 100% means that no disease was observed.

[4] = system: Pyrenophora teres; experiment: In vivo preventive test on Pyrenophora teres (net blotch on barley); conditions: 240 h, 500 ppm of active ingredient, preventive spray on barley, evaluated 10 days after inoculation, read-out: efficacy
Procedure: Example: In Vivo Preventive Test on Pyrenophora teres (Net Blotch on Barley)
as §1, §2
The young plants of barley were treated by spraying the active ingredient prepared as described above. Control plants were treated only with an aqueous solution of Acetone/Dimethyl sulfoxide/Tween®80.
After 24 hours, the plants were contaminated by spraying the leaves with an aqueous suspension of Pyrenophora teres spores. The contaminated barley plants were incubated for 48 hours at 20° C. and at 100% relative humidity and then for 8 days at 20° C. and at 70-80% relative humidity.
The test was evaluated 10 days after the inoculation. 0% means an efficacy which corresponds to that of the control plants while an efficacy of 100% means that no disease was observed.

[5] = system: Alternaria alternata; experiment: Alternaria alternata in vitro cell test; type: cell-based; conditions: 120 h, 20 ppm of active ingredient, liquid culture, 5 days incubation, read-out: efficacy (inhibition of fungal growth)
Procedure: as §3, with “Example: Alternaria alternata” for “Example: Colletotrichum lindemuthianum”, “of A. alternata” for “of C. lindemuthianum”, “inhibit spore” for “inhibit spores”, “After 5” for “After 6”

[6] = Measurement of LogP values by HPLC on reversed phase columns (EEC directive 79/831 Annex V.A8), methods [a], [b], [c]; type: physicochemical; conditions: HPLC on reversed phase column, method [a]; read-out: Log P
Procedure: Measurement of Log P values as provided herein was performed according to EEC directive 79/831 Annex V.A8 by HPLC (High Performance Liquid Chromatography) on reversed phase columns with the following methods: • ^[a]
If more than one Log P value is available within the same method, all the values are given and separated by “+”.
Lambda-max-values were determined using UV-spectra from 200 nm to 400 nm and the peak values of the chromatographic signals

[7] = system: Alternaria brassicae; experiment: In vivo preventive test on Alternaria brassicae (leaf spot on radish or cabbage); conditions: 144 h, 500 ppm of active ingredient, preventive spray on radish or cabbage, evaluated 6 days after inoculation, read-out: efficacy
Procedure: Example: In Vivo Preventive Test on Alternaria brassicae (Leaf Spot on Radish or Cabbage)
as §1, §2
The young plants of radish or cabbage were treated by spraying the active ingredient prepared as described above. Control plants were treated only with an aqueous solution of Acetone/Dimethyl sulfoxide/Tween® 80.
After 24 hours, the plants were contaminated by spraying the leaves with an aqueous suspension of Alternaria brassicae spores. The contaminated radish or cabbage plants were incubated for 6 days at 20° C. and at 100% relative humidity.
The test was evaluated 6 days after the inoculation. 0% means an efficacy which corresponds to that of the control plants while an efficacy of 100% means that no disease was observed.

[8] = system: Botrytis cinerea; experiment: In vivo preventive test on Botrytis cinerea (grey mould); conditions: 500 ppm of active ingredient, preventive spray on gherkin or cabbage, evaluated 4 to 5 days after inoculation, read-out: efficacy
Procedure: Example: In Vivo Preventive Test on Botrytis cinerea (Grey Mould)
as §1, §2
The young plants of gherkin or cabbage were treated by spraying the active ingredient prepared as described above. Control plants were treated only with an aqueous solution of Acetone/Dimethyl sulfoxide/Tween® 80.
After 24 hours, the plants were contaminated by spraying the leaves with an aqueous suspension of Botrytis cinerea spores. The contaminated gherkin plants were incubated for 4 to 5 days at 17° C. and at 90% relative humidity. The contaminated cabbage plants were incubated for 4 to 5 days at 20° C. and at 100% relative humidity.
The test was evaluated 4 to 5 days after the inoculation. 0% means an efficacy which corresponds to that of the control plants while an efficacy of 100% means that no disease was observed.

Structure (SMILES)	pest or weed control at 500 ppm [1] [%]	inhibition at 20 ppm [2] [%]	pest or weed control at 500 ppm [3] [%]	pest or weed control at 500 ppm [4] [%]	inhibition at 20 ppm [5] [%]	chromatographic logP [6]	pest or weed control at 500 ppm [7] [%]	pest or weed control at 500 ppm [8] [%]
Cc1cc(C2=NOCC(c3ccc(Cl)cc3)N2)c(Oc2cccc(C(F)(F)F)c2)nn1 (racemic) [I-040, rac-5-(4-chlorophenyl)-3-[6-methyl-3-[3-(trifluoro-methyl)phenoxy]pyridazin-4-yl]-5,6-dihydro-4H-1,2,4-oxadiazine]	90 to 100	90 to 100	80 to 89	80 to 89	90 to 100	3.29	90 to 100	90 to 100
Cc1ccc(CC2CON=C(c3c(Oc4cccc(C(F)(F)F)c4)nnc(Cl)c3NC3CC3)N2)c(C)c1 (racemic) [I-041, 3-chloro-N-cyclopropyl-5-[rac-5-[(2,4-dimethylphenyl)methyl]-5,6-dihydro-4H-1,2,4-oxadiazin-3-yl]-6-[3-(trifluoromethyl)phenoxy]pyridazin-4-amine]	–	90 to 100	90 to 100	–	90 to 100	4.03	90 to 100	90 to 100
Cc1ccc(CC2CON=C(c3c(Oc4cccc(C5CC5)c4F)nnc(Cl)c3C)N2)c(C)c1 (racemic) [I-058, rac-3-[6-chloro-3-(3-cyclopropyl-2-fluoro-phenoxy)-5-methyl-pyridazin-4-yl]-5-[(2,4-dimethylphenyl)methyl]-5,6-dihydro-4H-1,2,4-oxadiazine]	90 to 100	90 to 100	90 to 100	80 to 89	90 to 100	4.3	90 to 100	90 to 100
Cc1cc(C2=NOCCC(c3ccc4c(ccn4C)c3)N2)c(Oc2cccc(C(F)(F)F)c2)nn1 (racemic) [I-062, rac-5-(1-methylindol-5-yl)-3-[6-methyl-3-[3-(trifluoro-methyl)phenoxy]pyridazin-4-yl]-4,5,6,7-tetrahydro-1,2,4-oxadiazepine]	90 to 100	–	90 to 100	–	–	1.92	90 to 100	90 to 100
Cc1ccc(CC2CON=C(c3c(Oc4cccc(C(F)(F)F)c4)nnc(Cl)c3I)N2)c(C)c1 (racemic) [I-065, rac-3-[6-chloro-5-iodo-3-[3-(trifluoromethyl)phenoxy]pyridazin-4-yl]-5-[(2,4-dimethylphenyl)methyl]-5,6-dihydro-4H-1,2,4-oxadiazine]	90 to 100	90 to 100	–	70 to 79	90 to 100	4.37	90 to 100	–
Cc1ccc(CC2CC(=O)N=C(c3cc(Cl)nnc3Oc3cccc(C4CC4)c3)N2)c(C)c1 (racemic) [I-078, rac-2-[6-chloro-3-(3-cyclopropylphenoxy)pyridazin-4-yl]-6-[(2,4-dimethylphenyl)methyl]-5,6-dihydro-1H-pyrimidin-4-one]	90 to 100	90 to 100	80 to 89	80 to 89	90 to 100	4.31	90 to 100	90 to 100
Cc1ccc(CC2CCN=C(c3cc(Cl)nnc3Oc3cccc(C(F)(F)F)c3)N2)c(C)c1 (racemic) [I-117, 6-chloro-4-[rac-6-[(2,4-dimethylphenyl)methyl]-1,4,5,6-tetrahydropyrimidin-2-yl]-3-[3-(trifluoromethyl)phenoxy]pyridazine]	90 to 100	90 to 100	–	–	90 to 100	2.56	90 to 100	90 to 100
Cc1ccc(OCC2CON=C(c3cc(C)nnc3Oc3cccc(C(F)(F)F)c3)N2)c(C)c1 (racemic) [I-144, rac-5-[(2,4-dimethylphenoxy)methyl]-3-[6-methyl-3-[3-(trifluoromethyl)phenoxy]pyridazin-4-yl]-5,6-dihydro-4H-1,2,4-oxadiazine]	–	90 to 100	70 to 79	–	90 to 100	3.98	90 to 100	90 to 100
COc1ccc(C2NC(c3cc(C)nnc3Oc3cccc(C(F)(F)F)c3)=NOC2(F)F)cc1 (racemic) [I-154, rac-6,6-difluoro-5-(4-methoxyphenyl)-3-[6-methyl-3-[3-(trifluoromethyl)phenoxy]pyridazin-4-yl]-4,5-dihydro-1,2,4-oxadiazine]	90 to 100	90 to 100	90 to 100	90 to 100	90 to 100	3.6	90 to 100	90 to 100
COCCSc1nnc(Oc2cccc(C(F)(F)F)c2)c(C2=NOCC(Cc3ccc(C)cc3C)N2)c1C (racemic) [I-187, rac-5-[(2,4-dimethylphenyl)methyl]-3-[6-(2-methoxyethylsulfanyl)-5-methyl-3-[3-(trifluoromethyl)phenoxy]pyridazin-4-yl]-5,6-dihydro-4H-1,2,4-oxadiazine]	–	90 to 100	90 to 100	–	90 to 100	4.51	90 to 100	90 to 100
